# Test results reported in patent publication US9714231B2, “Pyrrolidine GPR40 modulators” (BRISTOL-MYERS SQUIBB COMPANY, priority 2012, dated 2017).
# Counter-ions that a name gives are not always drawn. Like-named read-outs stand apart in the source and are kept apart here.
# How the values were obtained:
# [1] = biological target: T1, human GPR40 (Homo sapiens, UniProt O14842)
# [2] = biological target: T1, human GPR40; test: FDSS-based intracellular calcium assay (Human GRP40 in vitro assay); format: cell-based; set-up: 3xFLAG; expressed in transfected cells; conditions: cells expressing GPR40, intracellular Ca2+ response, FDSS reader; read-out: hGPR40 EC50
# Procedure, shortened: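 GPR40-expressing cells, plated overnight in serum-free phenol red-free DMEM, loaded with Fluo-3 in HBSS with 1.7 mM probenecid for 30 min at 37° C. Compounds in DMSO, diluted in assay buffer, added as 3× solutions; intracellular Ca^2+ response read on FDSS.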
# T1 sequence (O14842 whole entry): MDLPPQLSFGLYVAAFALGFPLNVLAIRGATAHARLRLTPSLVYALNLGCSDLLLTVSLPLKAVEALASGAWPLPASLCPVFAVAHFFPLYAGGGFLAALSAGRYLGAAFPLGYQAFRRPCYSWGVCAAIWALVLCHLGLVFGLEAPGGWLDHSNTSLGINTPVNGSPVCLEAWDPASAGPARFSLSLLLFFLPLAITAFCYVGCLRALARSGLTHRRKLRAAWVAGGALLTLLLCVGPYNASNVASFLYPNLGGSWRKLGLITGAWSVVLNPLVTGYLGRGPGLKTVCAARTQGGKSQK
EC50 [1],EC50 [2],Structure (SMILES)
16 nM,120 nM,"COc1ccc(C2CCCC2)c(N2CCC(Oc3ccc(N4C[C@H](OC)C[C@@H]4CC(=O)O)cc3)CC2)c1 [Example 61, 2-((2R,4R)-1-(4-(1-(2-Cyclopentyl-5-methoxyphenyl)piperidin-4-yloxy)phenyl)-4-methoxypyrrolidin-2-yl)acetic acid]"
47 nM,380 nM,"CCOc1ccc(F)c(N2CCC(Oc3ccc(N4C[C@H](Cc5cccc(OC)c5)C[C@@H]4CC(=O)O)cc3)CC2)c1 [Example 124, 2-((2R,4R)-1-(4-((1-(5-Ethoxy-2-fluorophenyl)piperidin-4-yl)oxy)phenyl)-4-(3-methoxybenzyl)pyrrolidin-2-yl)acetic acid, TFA]"
240 nM,170 nM,"COc1ccc(F)c(N2CCC(Oc3ccc(N4C[C@H](OC)C[C@@H]4CC(=O)O)cc3)CC2)c1 [Example 4, 2-((2R,4R)-1-(4-((1-(2-Fluoro-5-methoxyphenyl)piperidin-4-yl)oxy)phenyl)-4-methoxypyrrolidin-2-yl)acetic acid, HCl]"
11 nM,75 nM,"COc1cc(N2CCC(Oc3ccc(N4C[C@H](OC)[C@@H](C)[C@@H]4CC(=O)O)cc3)C(C)C2)c(Cl)cn1 (stereo partly drawn) [Example 119, 2-((2S,3S,4R)-1-(4-(((3,4-trans)-1-(5-Chloro-2-methoxypyridin-4-yl)-3-methylpiperidin-4-yl)oxy)phenyl)-4-methoxy-3-methylpyrrolidin-2-yl)acetic acid, HCl]"
